Test results from US10870647B2, “Imidazopyridine derivative, method for preparing same, and pharmaceutical composition containing same as active ingredient for preventing or treating cancer” (DAEGU-GYEONGBUK MEDICAL INNOVATION FOUNDATION, priority 2016, dated 2020).

Columns and labels:
Assay in all cases: Kinase selectivity, scanMAX Kinase assay panel (DiscoverX), % control at 1 uM
Format in all cases: binding
[1] = target: T1, scanMAX Kinase assay panel (Homo sapiens, UniProt P27037); conditions: ACVR2A; 1 uM; read-out: Percent Control (%)
T1 construct: purchased DiscoverX
T1 sequence (P27037 20-513): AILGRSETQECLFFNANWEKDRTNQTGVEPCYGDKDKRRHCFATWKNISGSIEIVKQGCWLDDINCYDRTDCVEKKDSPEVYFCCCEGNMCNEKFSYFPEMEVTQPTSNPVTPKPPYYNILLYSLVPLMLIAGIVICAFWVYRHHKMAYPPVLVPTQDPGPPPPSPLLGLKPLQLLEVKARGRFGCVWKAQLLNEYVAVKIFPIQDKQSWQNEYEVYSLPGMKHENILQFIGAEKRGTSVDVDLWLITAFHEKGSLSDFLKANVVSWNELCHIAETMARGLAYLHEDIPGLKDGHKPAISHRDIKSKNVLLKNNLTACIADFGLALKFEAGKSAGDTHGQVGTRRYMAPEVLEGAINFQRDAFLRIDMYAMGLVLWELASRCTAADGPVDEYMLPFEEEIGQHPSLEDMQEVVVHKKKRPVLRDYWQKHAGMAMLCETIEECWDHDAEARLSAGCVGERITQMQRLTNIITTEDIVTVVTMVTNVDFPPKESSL
How it was run: (§1)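 A single concentration of 1 uM, in DMSO, is applied across the kinase panel. Activity against an individual enzyme is assigned where % control is less than 35.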

[2] = target: T2, scanMAX Kinase assay panel (Homo sapiens, UniProt P31152); conditions: ERK4; 1 uM; read-out: Percent Control (%)
T2 construct: purchased DiscoverX
T2 sequence (P31152 whole entry): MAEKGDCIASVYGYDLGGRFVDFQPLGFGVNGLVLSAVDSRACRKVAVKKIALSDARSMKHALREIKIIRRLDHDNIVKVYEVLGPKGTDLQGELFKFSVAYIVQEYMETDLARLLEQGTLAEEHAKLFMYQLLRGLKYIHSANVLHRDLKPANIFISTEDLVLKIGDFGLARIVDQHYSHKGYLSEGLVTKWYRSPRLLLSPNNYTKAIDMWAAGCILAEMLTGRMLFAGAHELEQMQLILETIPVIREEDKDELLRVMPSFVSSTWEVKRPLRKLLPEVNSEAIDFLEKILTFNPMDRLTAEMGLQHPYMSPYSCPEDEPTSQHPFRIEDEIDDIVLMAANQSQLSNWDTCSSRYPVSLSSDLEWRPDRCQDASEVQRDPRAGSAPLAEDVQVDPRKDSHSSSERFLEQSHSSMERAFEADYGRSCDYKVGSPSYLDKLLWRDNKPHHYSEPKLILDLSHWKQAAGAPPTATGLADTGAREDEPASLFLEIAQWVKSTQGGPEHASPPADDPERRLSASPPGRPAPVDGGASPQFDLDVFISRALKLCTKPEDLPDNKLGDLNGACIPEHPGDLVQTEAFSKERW
How it was run: as §1

[3] = target: T3, scanMAX Kinase assay panel (Homo sapiens, UniProt P42680); conditions: TEC; 1 uM; read-out: Percent Control (%)
T3 construct: purchased DiscoverX
T3 sequence (P42680 1-631): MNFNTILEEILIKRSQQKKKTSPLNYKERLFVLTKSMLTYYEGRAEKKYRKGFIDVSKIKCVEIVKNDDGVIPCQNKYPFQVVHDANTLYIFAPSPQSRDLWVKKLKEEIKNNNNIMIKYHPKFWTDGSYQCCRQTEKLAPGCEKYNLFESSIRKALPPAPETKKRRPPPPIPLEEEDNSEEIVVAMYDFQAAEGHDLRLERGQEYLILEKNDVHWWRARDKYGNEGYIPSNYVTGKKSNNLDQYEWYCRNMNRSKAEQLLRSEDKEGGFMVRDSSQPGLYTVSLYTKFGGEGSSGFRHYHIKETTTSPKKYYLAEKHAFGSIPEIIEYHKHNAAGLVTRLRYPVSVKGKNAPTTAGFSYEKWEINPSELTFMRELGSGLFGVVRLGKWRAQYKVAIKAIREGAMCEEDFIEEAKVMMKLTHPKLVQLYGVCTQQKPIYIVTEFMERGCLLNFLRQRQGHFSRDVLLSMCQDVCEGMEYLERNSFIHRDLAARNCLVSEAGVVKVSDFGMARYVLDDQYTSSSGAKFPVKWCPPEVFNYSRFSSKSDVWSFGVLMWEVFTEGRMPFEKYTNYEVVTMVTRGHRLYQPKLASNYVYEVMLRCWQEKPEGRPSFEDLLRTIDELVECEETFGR
How it was run: as §1

[4] = target: T4, scanMAX Kinase assay panel (Homo sapiens, UniProt P43405); conditions: SYK; 1 uM; read-out: Percent Control (%)
T4 construct: purchased DiscoverX
How it was run: as §1

[5] = target: T5, scanMAX Kinase assay panel (Homo sapiens, UniProt Q13163); conditions: MEK5; 1 uM; read-out: Percent Control (%)
T5 construct: purchased DiscoverX
T5 sequence (Q13163 1-448): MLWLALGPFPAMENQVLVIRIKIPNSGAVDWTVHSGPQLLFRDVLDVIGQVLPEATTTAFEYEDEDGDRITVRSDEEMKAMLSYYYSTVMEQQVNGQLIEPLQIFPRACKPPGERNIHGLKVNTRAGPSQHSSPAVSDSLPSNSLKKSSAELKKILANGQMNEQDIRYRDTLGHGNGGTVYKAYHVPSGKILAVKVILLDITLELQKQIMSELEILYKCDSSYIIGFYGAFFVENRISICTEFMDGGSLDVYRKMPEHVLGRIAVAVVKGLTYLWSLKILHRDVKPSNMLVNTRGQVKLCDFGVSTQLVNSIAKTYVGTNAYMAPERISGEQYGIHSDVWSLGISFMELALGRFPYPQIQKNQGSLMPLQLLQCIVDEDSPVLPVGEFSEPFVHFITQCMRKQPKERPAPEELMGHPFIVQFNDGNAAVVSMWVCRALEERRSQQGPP
How it was run: as §1

[6] = target: T6, scanMAX Kinase assay panel (Homo sapiens, UniProt Q15746); conditions: MYLK; 1 uM; read-out: Percent Control (%)
T6 construct: purchased DiscoverX
T6 sequence (Q15746 whole entry): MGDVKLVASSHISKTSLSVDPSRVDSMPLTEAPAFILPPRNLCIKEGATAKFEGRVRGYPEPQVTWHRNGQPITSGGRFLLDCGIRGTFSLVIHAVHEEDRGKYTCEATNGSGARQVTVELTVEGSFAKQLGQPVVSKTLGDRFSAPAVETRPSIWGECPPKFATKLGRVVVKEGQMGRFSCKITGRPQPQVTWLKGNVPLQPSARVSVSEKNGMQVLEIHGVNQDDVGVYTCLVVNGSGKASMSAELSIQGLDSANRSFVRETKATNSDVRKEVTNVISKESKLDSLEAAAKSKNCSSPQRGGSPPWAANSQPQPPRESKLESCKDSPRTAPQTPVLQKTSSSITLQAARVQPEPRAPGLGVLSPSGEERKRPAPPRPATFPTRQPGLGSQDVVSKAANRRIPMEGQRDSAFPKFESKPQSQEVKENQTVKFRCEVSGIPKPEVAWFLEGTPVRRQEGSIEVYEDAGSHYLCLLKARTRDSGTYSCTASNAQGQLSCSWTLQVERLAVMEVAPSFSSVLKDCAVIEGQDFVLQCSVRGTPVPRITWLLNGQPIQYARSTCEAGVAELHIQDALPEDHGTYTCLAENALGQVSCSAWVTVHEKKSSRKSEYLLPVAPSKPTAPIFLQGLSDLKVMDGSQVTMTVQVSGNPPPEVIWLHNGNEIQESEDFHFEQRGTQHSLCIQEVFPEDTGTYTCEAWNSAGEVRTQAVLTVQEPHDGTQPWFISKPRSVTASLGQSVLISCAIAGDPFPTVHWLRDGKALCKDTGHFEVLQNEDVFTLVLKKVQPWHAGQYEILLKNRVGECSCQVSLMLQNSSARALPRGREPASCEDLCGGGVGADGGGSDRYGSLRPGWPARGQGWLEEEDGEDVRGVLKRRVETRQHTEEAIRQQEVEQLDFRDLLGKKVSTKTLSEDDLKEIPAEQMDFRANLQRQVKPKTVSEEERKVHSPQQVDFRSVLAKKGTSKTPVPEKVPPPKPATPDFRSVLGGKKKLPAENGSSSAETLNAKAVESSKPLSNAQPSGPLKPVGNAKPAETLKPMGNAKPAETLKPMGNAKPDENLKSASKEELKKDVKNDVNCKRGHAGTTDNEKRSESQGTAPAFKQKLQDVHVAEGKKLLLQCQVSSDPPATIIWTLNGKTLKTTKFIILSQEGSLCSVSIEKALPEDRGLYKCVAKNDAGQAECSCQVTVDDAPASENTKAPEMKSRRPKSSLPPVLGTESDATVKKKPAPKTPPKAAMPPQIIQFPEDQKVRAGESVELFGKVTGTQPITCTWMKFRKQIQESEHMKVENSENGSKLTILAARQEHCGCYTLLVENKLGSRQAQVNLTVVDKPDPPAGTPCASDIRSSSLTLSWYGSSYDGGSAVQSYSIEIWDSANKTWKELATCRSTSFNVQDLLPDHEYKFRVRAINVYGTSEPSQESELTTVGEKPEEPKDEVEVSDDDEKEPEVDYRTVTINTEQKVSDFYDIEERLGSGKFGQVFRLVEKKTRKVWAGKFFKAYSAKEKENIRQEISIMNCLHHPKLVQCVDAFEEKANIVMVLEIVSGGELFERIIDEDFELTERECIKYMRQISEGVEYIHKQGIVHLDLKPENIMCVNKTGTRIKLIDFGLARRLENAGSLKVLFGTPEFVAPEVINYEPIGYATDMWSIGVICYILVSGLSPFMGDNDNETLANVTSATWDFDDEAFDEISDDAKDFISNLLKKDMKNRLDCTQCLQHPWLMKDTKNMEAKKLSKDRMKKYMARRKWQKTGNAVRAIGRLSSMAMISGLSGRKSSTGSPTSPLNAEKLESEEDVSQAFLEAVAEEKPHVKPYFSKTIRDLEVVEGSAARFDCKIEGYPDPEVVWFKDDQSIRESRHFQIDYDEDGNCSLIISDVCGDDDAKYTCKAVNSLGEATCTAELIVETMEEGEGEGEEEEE
How it was run: as §1

[7] = target: T7, scanMAX Kinase assay panel (Homo sapiens, UniProt Q9HBH9); conditions: MKNK2; 1 uM; read-out: Percent Control (%)
T7 construct: purchased DiscoverX
T7 sequence (Q9HBH9 whole entry): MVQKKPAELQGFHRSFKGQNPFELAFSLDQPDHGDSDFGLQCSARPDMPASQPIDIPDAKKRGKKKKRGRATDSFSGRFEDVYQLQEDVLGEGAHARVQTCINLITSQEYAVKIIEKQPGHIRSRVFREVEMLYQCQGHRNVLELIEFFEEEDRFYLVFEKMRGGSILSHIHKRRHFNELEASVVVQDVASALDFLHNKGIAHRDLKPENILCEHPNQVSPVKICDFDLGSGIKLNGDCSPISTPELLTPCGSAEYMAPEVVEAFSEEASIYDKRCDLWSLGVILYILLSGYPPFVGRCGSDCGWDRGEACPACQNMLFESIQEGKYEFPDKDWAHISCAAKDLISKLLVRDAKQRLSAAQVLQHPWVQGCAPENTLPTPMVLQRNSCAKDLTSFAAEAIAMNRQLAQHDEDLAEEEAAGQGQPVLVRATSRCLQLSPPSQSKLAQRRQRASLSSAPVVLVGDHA
How it was run: as §1

[8] = target: T8, scanMAX Kinase assay panel (Homo sapiens, UniProt Q9UBE8); conditions: NLK; 1 uM; read-out: Percent Control (%)
T8 construct: purchased DiscoverX
T8 sequence (Q9UBE8 1-527): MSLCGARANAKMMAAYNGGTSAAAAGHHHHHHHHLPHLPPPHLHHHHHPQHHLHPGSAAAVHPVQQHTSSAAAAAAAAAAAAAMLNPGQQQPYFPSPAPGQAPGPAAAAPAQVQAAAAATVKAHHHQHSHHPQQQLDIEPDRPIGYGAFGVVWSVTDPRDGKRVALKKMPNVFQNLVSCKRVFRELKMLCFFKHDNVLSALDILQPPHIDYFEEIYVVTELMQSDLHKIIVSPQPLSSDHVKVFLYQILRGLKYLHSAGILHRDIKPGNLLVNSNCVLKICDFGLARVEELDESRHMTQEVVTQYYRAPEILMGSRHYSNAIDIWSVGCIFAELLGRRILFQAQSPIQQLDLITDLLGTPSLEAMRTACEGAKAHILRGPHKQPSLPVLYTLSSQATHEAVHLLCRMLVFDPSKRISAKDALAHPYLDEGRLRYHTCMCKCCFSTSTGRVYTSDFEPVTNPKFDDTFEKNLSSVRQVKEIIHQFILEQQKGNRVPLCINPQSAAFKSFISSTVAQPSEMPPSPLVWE
How it was run: as §1

Compound | remaining binding at 1 µM [1] [%] | remaining binding at 1 µM [2] [%] | remaining binding at 1 µM [3] [%] | remaining binding at 1 µM [4] [%] | remaining binding at 1 µM [5] [%] | remaining binding at 1 µM [6] [%] | remaining binding at 1 µM [7] [%] | remaining binding at 1 µM [8] [%]
Cc1ccc(NC(=O)C2(C(=O)Nc3ccc(F)cc3)CC2)cc1C#Cc1cnc2c(Nc3cnn(C(C)C)c3)cccn12 [Example 78] | 100 | 100 | 100 | 78 | 21 | 100 | 100 | 50
Cc1cn(-c2cc(NC(=O)c3ccc(C)c(C#Cc4cnc5c(Nc6cnn(C)c6)cccn45)c3)cc(C(F)(F)F)c2)cn1 [Example 12, 4-methyl-N-(3-(4-methyl-1H-imidazol-1-yl)-5-(trifluoromethyl)phenyl)-3-((8-((1-methyl-1H-pyrazol-4-yl)amino)imidazo[1,2-a]pyridin-3-yl)ethynyl)benzamide] | 100 | 100 | 8 | 12 | 1 | 100 | 78 | 15
Cc1ccc(C(=O)Nc2ccc(CN3CCN(C)CC3)c(C(F)(F)F)c2)cc1C#Cc1cnc2c(Nc3cnn(C)c3)cccn12 [Example 1, 4-methyl-3-((8-((1-methyl-1H-pyrazol-4-yl)amino)imidazo[1,2-a]pyridin-3-yl)ethynyl)-N-(4-((4-methylpiperazin-1-yl)methyl)-3-(trifluoromethyl)phenyl)benzamide] | 95 | 91 | 0 | 2 | 1 | 64 | 2 | 24
